Test results as given in patent publication US6737383B1, “Herbicidal oxadiazolidines” (priority 1999, dated 2004).

Key:
[1] = test system: soybean; experiment: Test B pre/postemergence soybean; assay type: in vivo, Glycine max
Summary of the method: (§1)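 Herbicidal effect was estimated by eye on a ten-point control scale after plants spent twelve to sixteen days in a greenhouse following soil or foliar treatment. Foliar sprays targeted plants at one to four leaves; all doses were formulated in a non-phytotoxic solvent with surfactant.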

[2] = test system: morningglory; experiment: Test B pre/postemergence morningglory; assay type: in vivo, Ipomoea hederacea
Summary of the method: as §1

[3] = test system: blackgrass; experiment: Test B pre/postemergence blackgrass; assay type: in vivo, Alopecurus myosuroides
Summary of the method: as §1

[4] = test system: bedstraw; experiment: Test B pre/postemergence bedstraw; assay type: in vivo, Galium aparine
Summary of the method: as §1

[5] = test system: surinam grass; experiment: Test B pre/postemergence surinam grass; assay type: in vivo, Brachiaria decumbens
Summary of the method: as §1

[6] = test system: wheat; experiment: Test B pre/postemergence wheat; assay type: in vivo, Triticum aestivum; details: for Plant response rating, Wheat: Rate 250 g/ha
Summary of the method: as §1

[7] = test system: giant foxtail; experiment: Test B pre/postemergence giant foxtail; assay type: in vivo, Setaria faberii
Summary of the method: as §1

[8] = test system: velvetleaf; experiment: Test B pre/postemergence velvetleaf; assay type: in vivo, Abutilon theophrasti; details: for Plant response rating, Velvetleaf: Rate 250 g/ha
Summary of the method: as §1

[9] = test system: cocklebur; experiment: Test B pre/postemergence cocklebur; assay type: in vivo, Xanthium strumarium
Summary of the method: as §1

[10] = test system: corn; experiment: Test B pre/postemergence corn; assay type: in vivo, Zea mays
Summary of the method: as §1

[11] = test system: rice; experiment: Test B flood test rice; assay type: in vivo, Oryza sativa
Summary of the method: (§2)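 Flood test on plants grown to the 2-leaf stage; treated plants kept in greenhouse twelve to sixteen days, then visually rated against controls on a 0 (no effect) to 10 (complete control) scale.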

[12] = test system: wild oat; experiment: Test B pre/postemergence wild oat; assay type: in vivo, Avena fatua; details: for Plant response rating, Wild oats: Rate 250 g/ha
Summary of the method: as §1

[13] = test system: pigweed; experiment: Test B pre/postemergence pigweed; assay type: in vivo, Amaranthus retroflexus
Summary of the method: as §1

[14] = test system: rape; experiment: Test B pre/postemergence rape; assay type: in vivo, Brassica napus
Summary of the method: as §1

[15] = test system: sugar beet; experiment: Test B pre/postemergence sugar beet; assay type: in vivo, Beta vulgaris; details: for Plant response rating, Sugarbeets: Rate 250 g/ha
Summary of the method: as §1

[16] = test system: smallflower flatsedge; experiment: Test B flood test smallflower flatsedge; assay type: in vivo, Cyperus difformis
Summary of the method: as §2

[17] = Postemergence, Rate 125 g/ha, scale of 0 to 10 where 0 is no effect and 10 is complete control
[18] = Preemergence, Rate 62 g/ha, scale 0 to 10 (0 no effect, 10 complete control)
[19] = Preemergence, Rate 125 g/ha, scale 0 to 10 (0 no effect, 10 complete control)
[20] = Preemergence, Rate 250 g/ha, scale of 0 to 10 where 0 is no effect and 10 is complete control
[21] = Preemergence, Rate 500 g/ha, scale 0 to 10 (0 no effect, 10 complete control)
[22] = Rate 62 g/ha, Postemergence, scale of 0 to 10 where 0 is no effect and 10 is complete control
[23] = Rate 250 g/ha, Postemergence, scale 0 to 10, 0 is no effect, 10 is complete control
[24] = Rate 500 g/ha, Postemergence, scale 0 to 10, 0 no effect, 10 complete control
[25] = Postemergence, Rate 250 g/ha, scale 0 to 10, 0 no effect, 10 complete control
[26] = Postemergence, Rate 62 g/ha, scale 0 to 10, 0 is no effect, 10 is complete control
[27] = Rate 125 g/ha, Postemergence, scale 0 to 10, 0 no effect, 10 complete control
[28] = Preemergence, Rate 125 g/ha, 0 is no effect, 10 is complete control
[29] = Preemergence, scale of 0 to 10 where 0 is no effect and 10 is complete control
[30] = Postemergence, scale 0 to 10, 0 is no effect, 10 is complete control
[31] = Rate 250 g/ha, headed Pre-emergence (flood test species), scale 0 to 10 (0 no effect, 10 complete control)
[32] = Rate 500 g/ha, headed Pre-emergence (flood test species), scale 0 to 10 (0 no effect, 10 complete control)
[33] = Rate 2000 g/ha, Pre-emergence (as headed), scale 0 to 10

CCCn1c(=O)on(C(=O)N(c2ccc(Cl)cc2)C(C)C)c1=O [Compound 119]
Soybean plant response rating [1, 17]: 2
Soybean plant response rating [1, 18]: 0
Plant response rating, Soybean [1, 19]: 0
Plant response rating, Soybean [1, 20]: 0
Soybean plant response rating [1, 21]: 0
Soybean plant response rating [1, 22]: 1
Plant response rating, Soybean [1, 23]: 4
Soybean plant response rating [1, 24]: 6
Morningglory plant response rating [2, 17]: 7
Morningglory plant response rating [2, 25]: 7
Morningglory plant response rating [2, 18]: 0
Plant response rating, Morningglory [2, 19]: 2
Plant response rating, Morningglory [2, 20]: 2
Morningglory plant response rating [2, 21]: 5
Morningglory plant response rating [2, 22]: 3
Morningglory plant response rating [2, 24]: 8
Blackgrass plant response rating [3, 17]: 3
Blackgrass plant response rating [3, 25]: 7
Blackgrass plant response rating [3, 18]: 5
Plant response rating, Blackgrass [3, 19]: 8
Plant response rating, Blackgrass [3, 20]: 9
Blackgrass plant response rating [3, 21]: 9
Blackgrass plant response rating [3, 22]: 2
Blackgrass plant response rating [3, 24]: 8
Bedstraw plant response rating [4, 26]: 0
Bedstraw plant response rating [4, 25]: 4
Plant response rating, Bedstraw [4, 19]: 0
Plant response rating, Bedstraw [4, 20]: 2
Bedstraw plant response rating [4, 21]: 8
Bedstraw plant response rating [4, 27]: 2
Bedstraw plant response rating [4, 24]: 8
B. signalgrass plant response rating [5, 26]: 0
B. signalgrass plant response rating [5, 25]: 3
B. signalgrass plant response rating [5, 18]: 5
Plant response rating, B. signalgrass [5, 19]: 7
Plant response rating, B. signalgrass [5, 20]: 7
B. signalgrass plant response rating [5, 21]: 9
B. signalgrass plant response rating [5, 27]: 0
B. signalgrass plant response rating ([5]; Rate 500 g/ha, Postemergence, scale of 0 to 10 where 0 is no effect and 10 is complete control): 5
Wheat plant response rating [6, 17]: 0
Wheat plant response rating [6, 18]: 0
Wheat plant response rating (0 to 10 scale) [6, 28]: 0
Plant response rating, Wheat [6, 29]: 3
Wheat plant response rating [6, 21]: 5
Wheat plant response rating [6, 22]: 0
Plant response rating, Wheat [6, 30]: 3
Wheat plant response rating [6, 24]: 3
Giant foxtail plant response rating [7, 17]: 8
Giant foxtail plant response rating [7, 25]: 8
Giant foxtail plant response rating [7, 18]: 9
Plant response rating, Giant foxtail [7, 19]: 10
Plant response rating, Giant foxtail [7, 20]: 10
Giant foxtail plant response rating [7, 21]: 10
Giant foxtail plant response rating [7, 22]: 8
Giant foxtail plant response rating [7, 24]: 8
Velvetleaf plant response rating [8, 17]: 2
Velvetleaf plant response rating [8, 18]: 0
Velvetleaf plant response rating (0 to 10 scale) [8, 28]: 4
Plant response rating, Velvetleaf [8, 29]: 5
Velvetleaf plant response rating [8, 21]: 6
Velvetleaf plant response rating [8, 22]: 0
Plant response rating, Velvetleaf [8, 30]: 3
Velvetleaf plant response rating [8, 24]: 3
Cocklebur plant response rating [9, 17]: 0
Cocklebur plant response rating [9, 25]: 0
Cocklebur plant response rating [9, 18]: 0
Plant response rating, Cocklebur [9, 19]: 0
Plant response rating, Cocklebur [9, 20]: 0
Cocklebur plant response rating [9, 22]: 0
Cocklebur plant response rating [9, 24]: 0
Corn plant response rating [10, 17]: 0
Corn plant response rating [10, 25]: 0
Corn plant response rating [10, 18]: 0
Plant response rating, Corn [10, 19]: 0
Plant response rating, Corn [10, 20]: 0
Corn plant response rating [10, 21]: 2
Corn plant response rating [10, 22]: 0
Corn plant response rating [10, 24]: 0
Plant response rating, Rice ([11]; Rate 250 g/ha, Postemergence (flood test), scale 0 to 10, 0 is no effect, 10 is complete control): 0
Rice plant response rating [11, 31]: 0
Plant response rating, Rice [11, 32]: 0
Rice plant response rating ([11]; Rate 500 g/ha, listed under Postemergence (flood test species), scale 0 to 10, 0 no effect, 10 complete control): 0
Rice plant response rating ([11]; Rate 1000 g/ha, Pre-emergence (as headed), scale 0 to 10): 0
Rice plant response rating [11, 33]: 0
Wild oats plant response rating [12, 17]: 0
Wild oats plant response rating [12, 18]: 5
Wild oats plant response rating (0 to 10 scale) [12, 28]: 6
Plant response rating, Wild oats [12, 29]: 6
Wild oats plant response rating [12, 21]: 9
Wild oats plant response rating [12, 22]: 0
Plant response rating, Wild oats [12, 30]: 3
Wild oats plant response rating [12, 24]: 6
Redroot pigweed plant response rating [13, 17]: 0
Redroot pigweed plant response rating [13, 18]: 10
Plant response rating, Redroot pigweed [13, 19]: 10
Plant response rating, Redroot pigweed [13, 20]: 10
Redroot pigweed plant response rating [13, 21]: 10
Redroot pigweed plant response rating [13, 22]: 0
Plant response rating, Redroot pigweed [13, 23]: 2
Redroot pigweed plant response rating [13, 24]: 6
Rape plant response rating [14, 17]: 0
Rape plant response rating [14, 25]: 2
Rape plant response rating [14, 18]: 4
Plant response rating, Rape [14, 19]: 6
Plant response rating, Rape [14, 20]: 7
Rape plant response rating [14, 21]: 9
Rape plant response rating [14, 22]: 0
Rape plant response rating [14, 24]: 4
Sugarbeets plant response rating [15, 17]: 0
Sugarbeets plant response rating [15, 18]: 3
Sugarbeets plant response rating (0 to 10 scale) [15, 28]: 4
Plant response rating, Sugarbeets [15, 29]: 8
Sugarbeets plant response rating [15, 21]: 8
Sugarbeets plant response rating [15, 22]: 0
Plant response rating, Sugarbeets [15, 30]: 0
Sugarbeets plant response rating [15, 24]: 4
S. Flatsedge plant response rating ([16]; Pre-emergence, Rate 1000 g/ha, scale 0 to 10 (0 no effect, 10 complete control)): 0
S. Flatsedge plant response rating [16, 31]: 0
Plant response rating, S. Flatsedge [16, 32]: 0
S. Flatsedge plant response rating [16, 33]: 0
